Experimental data from patent US6888033B1, “Anti-viral compounds” (Cytoclonal Pharmaceutics, Inc., priority 1996, dated 2005).
Where two headings read alike, the source gives them in different places. One block for each molecule: values may come before it.

Legend:
[1] = biological target: T1, Recombinant HRV-1A 3C protease (Human rhinovirus 1A, UniProt P23008); test: HRV 3C Protease Inhibition Assay - HPLC Method; format: biochemical; settings: Km value of 1.9 mM, overnight incubation
T1 construct: HRV-1A 3C protease was produced in E. Coli [BL21(DE3)pLysS] containing the protease gene; made in house; host or cells: E. coli BL21(DE3)pLysS, T7 expression vector
T1 sequence (P23008 1515-1697): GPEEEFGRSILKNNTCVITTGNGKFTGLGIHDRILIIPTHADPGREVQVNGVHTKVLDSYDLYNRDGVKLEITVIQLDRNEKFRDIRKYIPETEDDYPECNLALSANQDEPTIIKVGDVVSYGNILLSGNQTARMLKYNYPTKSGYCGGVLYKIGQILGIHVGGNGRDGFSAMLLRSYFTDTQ

HRV 3C protease = biological target: T2, HRV 3C protease (Human rhinovirus 1A, UniProt P23008); test: Inhibition of 3C protease cleavage activity, peptide cleavage assay with reverse phase HPLC; format: biochemical
T2 construct: 2.5 μg of HRV 3C protease
T2 sequence (P23008 1515-1697): as above
Description: Next, the inhibition of 3C protease activity was measured by using a cleavage assay. […] Specific cleavage of this peptide [(N-Ac)Arg-Ala-Glu-Leu-Gln-Gly-Pro-[…]-Asp-Glu] (SEQ ID NO:2) by HRV 3C provided two pentapeptides. In a typical experiment 80 μg of peptide, dissolved in 100 mM TRIS (pH 8) and 100 mM NaCl, was incubated at 35° C. with 2.5 μg of HRV 3C protease with and without DIF1, to give a total volume of 30 μl. In both cases 3C was suspended in a buffered solution (40 mM Tris-HCL, pH 8.0, 100 mM, NaCl, 1 mM DTT, 1 mM EDTA), 2.5 mg of DIF1 (dissolved in 1 ml of ethanol) was used, corresponding to a concentration of 270 μM. Inhibitory effects due to the organic solvent were not observed; nevertheless, 10 μl of ethanol were added to the control. Aliquots were drawn at short intervals (within ca. 40 min.) and quenched with an equal volume of 1% TFA in Methanol (HPLC grade). […]
The degree of 3C protease inhibition by DIF1 was found by integration of peak areas under the 280 nm absorption curve. The degree of cleavage was calculated as the ratio of peak areas corresponding to peptide alone and peptide plus GPYDE (SEQ ID NO:3) product. Quantification was based on the initial, linear portion of the absorption curve, which represents less than 20% cleavage.

elastase = test: Elastase cleavage activity (specificity); format: biochemical; settings: 50 mM DIF1
Description: (§1) The specificity of DIF1 as an enzyme inhibitor was tested using cleavage assays for a number of other enzymes, including elastase, cathepsin B, chymotripsin, papain and ficin A. Elastase was particularly important because it is present in […], so that inhibition of its activity could potentially be highly toxic. […] The experimental method was as follows.
The cleavage activity of elastase was determined in 0.1 M Tris-HCl pH 7.0 buffer containing 20 μg/ml enzyme and its synthetic substrate. N-succinyl-Ala-Ala-Ala-p-nitroanilide.

cathepsin B = cathepsin B (Homo sapiens, UniProt P07858); test: Cathepsin B cleavage activity (specificity); format: biochemical; settings: all DIF1 concentrations tested
Description: as §1
(§2) The cleavage activity for cathepsin B was assayed according to the method of Bajowski an Frankfater (Anal. Biochem. 68:119 (1975)). Chymotripsin was assayed in 0.1M KPi buffer pH 7.0 containing 0.04 μg/ml enzyme and 200 μM N-benzyl-L-tryosine ethyl ester (from a 20 mM stock in dimethyl sulfoxide). The reaction was monitored by spectrophotometry at 256 nm.

chymotripsin = chymotripsin (Bos taurus, UniProt P00766); test: Chymotripsin assay (specificity); format: biochemical; settings: all DIF1 concentrations tested
Description: as §1, §2

papain = biological target: T3, papain (Carica papaya, UniProt P00784); test: Papain assay (specificity); format: biochemical; settings: all DIF1 concentrations tested
T3 sequence (P00784 134-345): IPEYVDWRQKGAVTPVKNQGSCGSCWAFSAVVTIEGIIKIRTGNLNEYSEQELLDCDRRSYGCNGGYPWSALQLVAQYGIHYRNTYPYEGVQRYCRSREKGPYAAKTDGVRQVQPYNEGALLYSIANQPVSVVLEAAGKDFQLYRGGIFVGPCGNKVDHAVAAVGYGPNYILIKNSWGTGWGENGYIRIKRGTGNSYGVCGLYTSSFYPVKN
Description: as §1
(§3) Papain and Ficin were incubated for one hour in an activation solution containing 0.1 M KPi buffer pH 7.0. 0.5 mM cysteine, 20 mM EDTA and 65 μg enzyme. The assays were carried out by adding 20 μl aliquots from the activation mix to 0.1 M KPi buffer pH 7.0, containing 12.5 nM N-CBZ-p-Nitrophenyl ester. The reaction was monitored by spectrphotometry at 405 nm.

ficin A = test: Ficin assay (specificity); format: biochemical; settings: all DIF1 concentrations tested
Description: as §1, §3

[2] = system: human rhinovirus 14, strain 1059; test: Inhibition of virus in whole-cell assay (inhibition of cytopathic effect); format: cell-based
Description: H1-HeLa cells, obtained from ATCC (F-13824, 1958-CRL) were cultured in MEM (Minimum Essential Medium) supplemented with 10% heat-inactivated fetal calf serum (FCS) by incubation at 37° C, 5% CO2 (Biological Industry, Kibbuts Beit HaEmek, Israel).
96 well plates were seeded to 90% confluency. After 12-24 hrs of incubation, the cell's monolayer was washed with phosphate-buffered saline (PBS), and the cells were subsequently infected with ten-fold dilutions in PBS (log10) of human rhinovirus 14, strain 1059, obtained from ATCC.
For each concentration of compound, three rows of wells containing various dilutions of virus were used. After 1 h of incubation at room temperature, medium containing 3% FCS and various concentrations of compound to be tested was placed in the well. After 2 days incubation at 34° C, 5% CO2, the cells were fixed by 10% formaldehyde and stained with methylene blue to determine cell viability. The cytopathic effect of non-viable cells was arbitrarily set to 100% for the untreated viral infection, so that the effect of each compound on cell viability was determined according to this baseline. Each experiment was performed 5 times for each compound, and the inhibition of cytopathic effect (ICE50) for inhibition of viral activity was calculated. […] ICE50 refers to the concentration in which 50% of the cells remain viable after viral infection.

H1-HeLa cells = test: 50% toxic dose (TD50); format: cell-based

SMILES: COc1ccc(C(=O)c2ccccc2O)c(O)c1 [Compound 1, Dioxybenzone, reference compound]
- Ki [1]: 4700 ± 900 µM

SMILES: O=C1C=CC(=O)c2c(O)cccc21 [Compound 3, Juglone, reference compound]
- Ki [1]: 630 ± 70 µM

SMILES: CCCCCC(=O)c1c(O)c(Cl)c(OC)c(Cl)c1O [Compound 15, 1-(3,5-dichloro-2,6-dihydroxy-4-methoxyphenyl)-hexan-1-one]
- Ki (HRV 3C protease; HRV 3C protease, N-acetylated 10-mer peptide substrate, 35° C.): 220 µM
- rate of substrate cleavage (HRV 3C protease; in the presence of 270 μM DIF1): decreased significantly
- Ki [1]: 460 ± 80 µM
- inhibition of cleavage activity of elastase (elastase): did not inhibit
- effect on proteolytic activity of cathepsin B (cathepsin B): not to effect
- effect on proteolytic activity of chymotripsin (chymotripsin): not to effect
- effect on proteolytic activity of papain (papain): not to effect
- effect on proteolytic activity of ficin A (ficin A): not to effect
- IC50 ([2]; Rhinovirus B, H1-HeLa): 7.5 µM
- TD50 (H1-HeLa cells): 30

SMILES: CCCCCC(=O)c1c(O)c(Cl)c(O)c(Cl)c1OC [Compound 16, 1-(3,5-dichloro-2,4-dihydroxy-6-methoxyphenyl)-hexan-1-one]
- Ki [1]: 390 ± 30 µM
- IC50 ([2]; Rhinovirus B, H1-HeLa cells, HRV 14, Table 2, Formula V, read-out: IC50): 3 µM
- TD50 (H1-HeLa cells): 40

SMILES: CCCCCC(=O)c1c(O)c(Cl)c(O)c(Cl)c1O [Compound 20]
- Ki [1]: 460 ± 60 µM
- TD50 (H1-HeLa cells): 1875

SMILES: COc1cc(O)cc(O)c1C(C)=O [Compound 23, 2,4-dihydroxy-6-methoxy acetophenone]
- TD50 (H1-HeLa cells; Table 1, Formula IV): 220 µM

SMILES: COc1cc(O)c(Cl)c(O)c1C(C)=O [Compound 25]
- Ki [1]: 3000 ± 1500 µM
- IC50 ([2]; Rhinovirus B, 48 h, H1-HeLa cells, HRV 14, 2 days at 34° C, Table 1, Formula IV, read-out: ICE50): 11 µM
- TD50 (H1-HeLa cells; human): 22 µM
- melting point: 187.5 to 189 °C

- melting point: 121 °C
SMILES: COC(CCO)CC(O)C(=O)c1ccccc1 (stereo not drawn) [Compound 107, 2,6-dihydroxy-4-methoxyhexanophenone]

- melting point: 109 °C
SMILES: COCCC(O)CC(O)C(=O)c1ccccc1 (stereo not drawn) [Compound 108, 2,4-dihydroxy-6-methoxyhexanophenone]

- IC50 ([2]; H1-HeLa cells, HRV 14, 2 days at 34° C, Table 1, Formula IV, read-out: ICE50): 1250 µM
SMILES: CC(=O)c1c(O)c(Cl)cc(Cl)c1O [Compound 109]
- TD50 (H1-HeLa cells): 5000 µM

SMILES: O=C(CCc1ccc(O)cc1)c1c(O)cc(O)cc1O [Formula VIII, Z′=OH, Y′=H, R3=OH, Y=H, phloretin]
- TD50 (H1-HeLa cells): 160
